Format in all cases: cell-based
In one experiment the target is T1, human TLR7 (Homo sapiens, UniProt Q9NYK1).
T1 construct: host or cells: HEK-Blue cells (HEK293-derived reporter line)
T1 sequence (Q9NYK1 27-1049): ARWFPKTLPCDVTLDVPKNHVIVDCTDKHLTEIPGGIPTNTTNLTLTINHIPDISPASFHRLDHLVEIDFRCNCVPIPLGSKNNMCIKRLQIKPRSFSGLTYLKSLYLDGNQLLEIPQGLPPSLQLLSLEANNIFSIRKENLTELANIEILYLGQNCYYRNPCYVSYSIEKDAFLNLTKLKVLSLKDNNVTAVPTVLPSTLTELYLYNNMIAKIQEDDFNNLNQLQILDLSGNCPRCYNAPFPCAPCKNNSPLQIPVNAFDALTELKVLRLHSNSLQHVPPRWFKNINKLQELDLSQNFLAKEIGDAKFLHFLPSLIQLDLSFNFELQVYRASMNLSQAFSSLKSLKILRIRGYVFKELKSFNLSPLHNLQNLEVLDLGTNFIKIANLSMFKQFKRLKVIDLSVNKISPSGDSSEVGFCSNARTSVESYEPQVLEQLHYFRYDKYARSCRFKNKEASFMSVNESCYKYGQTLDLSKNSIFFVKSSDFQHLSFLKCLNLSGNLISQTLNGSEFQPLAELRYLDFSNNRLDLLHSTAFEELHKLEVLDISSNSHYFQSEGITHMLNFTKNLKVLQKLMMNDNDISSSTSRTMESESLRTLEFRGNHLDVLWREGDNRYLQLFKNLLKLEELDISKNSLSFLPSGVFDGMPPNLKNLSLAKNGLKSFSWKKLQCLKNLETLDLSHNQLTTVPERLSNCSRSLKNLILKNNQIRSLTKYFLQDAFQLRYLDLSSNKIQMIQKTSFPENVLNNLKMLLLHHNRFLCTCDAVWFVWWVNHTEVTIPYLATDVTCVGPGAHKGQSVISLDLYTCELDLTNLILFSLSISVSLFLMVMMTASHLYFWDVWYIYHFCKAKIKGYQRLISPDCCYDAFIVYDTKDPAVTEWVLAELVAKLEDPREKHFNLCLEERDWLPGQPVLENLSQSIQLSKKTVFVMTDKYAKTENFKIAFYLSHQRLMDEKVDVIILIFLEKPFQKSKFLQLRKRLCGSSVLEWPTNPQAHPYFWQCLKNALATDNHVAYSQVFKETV
The experiment can be described thus: TLR7 inhibition reporter assay (HEK-Blue cells, SEAP reporter, gardiquimod stimulation). To be noted: HEK-Blue cells overexpressing human TLR7, SEAP reporter, gardiquimod 7.5 μM. In outline: (§1)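 HEK-Blue cells overexpressing the receptor, with NF-κB/AP-1-driven SEAP, were pre-treated 30 min at room temperature with compound (0.05 nM–50 μM), then stimulated with gardiquimod 7.5 μM (TLR7), R848 15.9 μM (TLR8) or ODN2006 5 nM (TLR9). SEAP was read after 22 h at 37 °C as percent inhibition.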

The target in the next experiment is T2, human TLR9 (Homo sapiens, UniProt Q9NR96).
T2 construct: host or cells: HEK-Blue cells (HEK293-derived reporter line)
T2 sequence (Q9NR96 26-1032): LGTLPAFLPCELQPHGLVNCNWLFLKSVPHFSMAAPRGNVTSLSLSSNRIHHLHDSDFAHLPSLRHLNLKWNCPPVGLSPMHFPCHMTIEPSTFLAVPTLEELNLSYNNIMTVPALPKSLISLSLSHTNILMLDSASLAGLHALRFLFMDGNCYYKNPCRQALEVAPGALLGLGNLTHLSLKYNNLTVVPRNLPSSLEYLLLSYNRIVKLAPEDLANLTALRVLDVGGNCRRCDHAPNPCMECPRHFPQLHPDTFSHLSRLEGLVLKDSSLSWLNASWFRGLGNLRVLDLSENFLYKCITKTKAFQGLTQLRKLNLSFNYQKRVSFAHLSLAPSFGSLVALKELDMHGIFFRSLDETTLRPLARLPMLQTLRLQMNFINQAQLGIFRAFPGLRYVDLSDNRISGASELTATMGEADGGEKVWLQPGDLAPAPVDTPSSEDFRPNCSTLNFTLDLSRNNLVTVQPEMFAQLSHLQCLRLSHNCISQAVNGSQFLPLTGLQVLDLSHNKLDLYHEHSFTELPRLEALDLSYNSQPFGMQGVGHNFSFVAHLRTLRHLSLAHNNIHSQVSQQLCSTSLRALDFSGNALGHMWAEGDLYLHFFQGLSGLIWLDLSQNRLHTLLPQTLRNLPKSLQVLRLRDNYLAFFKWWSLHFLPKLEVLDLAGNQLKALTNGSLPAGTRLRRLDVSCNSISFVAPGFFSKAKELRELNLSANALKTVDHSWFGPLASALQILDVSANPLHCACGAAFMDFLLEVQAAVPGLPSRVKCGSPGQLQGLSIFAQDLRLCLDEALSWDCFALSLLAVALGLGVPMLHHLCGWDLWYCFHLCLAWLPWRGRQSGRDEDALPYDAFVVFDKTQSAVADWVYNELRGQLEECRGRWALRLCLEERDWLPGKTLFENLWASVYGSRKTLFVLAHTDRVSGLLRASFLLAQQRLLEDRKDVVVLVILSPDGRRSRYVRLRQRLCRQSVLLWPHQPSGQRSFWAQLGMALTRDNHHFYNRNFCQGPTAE
The experiment in a line: TLR9 inhibition reporter assay (HEK-Blue cells, SEAP reporter, ODN2006 stimulation). Conditions: HEK-Blue cells overexpressing human TLR9, SEAP reporter, ODN2006 5 nM. Summed up: as §1
(Reporter assays use an easily measured gene product as a stand-in for the process of interest.)

The next experiment concerns the target T3, human TLR8 (Homo sapiens, UniProt Q9NR97).
T3 construct: host or cells: HEK-Blue cells (HEK293-derived reporter line)
T3 sequence (Q9NR97 27-1041): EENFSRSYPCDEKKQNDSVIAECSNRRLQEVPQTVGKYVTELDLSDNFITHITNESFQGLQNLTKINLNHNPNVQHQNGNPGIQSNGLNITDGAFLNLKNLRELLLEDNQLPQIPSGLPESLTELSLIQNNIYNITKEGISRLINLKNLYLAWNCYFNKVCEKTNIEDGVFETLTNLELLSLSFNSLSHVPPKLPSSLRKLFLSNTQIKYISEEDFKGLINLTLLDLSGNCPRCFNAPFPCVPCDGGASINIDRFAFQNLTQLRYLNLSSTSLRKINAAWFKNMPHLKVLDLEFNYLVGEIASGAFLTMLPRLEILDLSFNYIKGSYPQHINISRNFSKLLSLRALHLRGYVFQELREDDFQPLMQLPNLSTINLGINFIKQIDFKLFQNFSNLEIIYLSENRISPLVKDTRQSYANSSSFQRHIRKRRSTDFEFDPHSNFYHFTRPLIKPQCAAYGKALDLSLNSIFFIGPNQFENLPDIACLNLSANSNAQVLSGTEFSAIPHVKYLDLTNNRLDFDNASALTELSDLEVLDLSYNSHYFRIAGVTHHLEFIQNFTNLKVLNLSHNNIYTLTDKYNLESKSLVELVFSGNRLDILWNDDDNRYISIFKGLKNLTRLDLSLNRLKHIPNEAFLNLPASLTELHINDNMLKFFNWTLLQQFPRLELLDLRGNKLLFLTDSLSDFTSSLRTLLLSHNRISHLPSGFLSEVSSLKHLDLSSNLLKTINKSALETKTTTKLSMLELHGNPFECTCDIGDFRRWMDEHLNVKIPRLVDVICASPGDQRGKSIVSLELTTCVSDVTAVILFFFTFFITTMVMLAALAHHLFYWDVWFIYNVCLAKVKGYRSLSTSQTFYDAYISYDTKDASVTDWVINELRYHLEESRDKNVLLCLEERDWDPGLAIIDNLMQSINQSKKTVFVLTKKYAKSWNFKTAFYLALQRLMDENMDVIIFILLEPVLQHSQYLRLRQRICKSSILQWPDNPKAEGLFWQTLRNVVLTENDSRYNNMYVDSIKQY
The experiment can be described thus: TLR8 inhibition reporter assay (HEK-Blue cells, SEAP reporter, R848 stimulation). To be noted: HEK-Blue cells overexpressing human TLR8, SEAP reporter, R848 15.9 μM. Summed up:
as §1

As a reminder, the IC50 is the concentration that gives 50% inhibition. Consider `CNC(=O)CN1CCC(c2ccc3[nH]c(-c4ccn5nccc5c4)c(C(C)C)c3c2)CC1` [Example 405, 2-(4-(3-isopropyl-2-(pyrazolo[1,5-a]pyridin-5-yl)-1H-indol-5-yl)piperidin-1-yl)-N-methylacetamide], for which the IC50 on human TLR7 was less than 100 nM; at human TLR9, 1000 to 50000 nM; at human TLR8, less than 100 nM.
On to `Cc1nc2c(-c3[nH]c4ccc(C5CCN(C(=O)C[C@H](C)O)CC5)cc4c3C(C)C)ccc(C)n2n1` [Example 598, (S)-1-(4-(2-(2,5-dimethyl-[1,2,4]triazolo[1,5-a]pyridin-8-yl)-3-isopropyl-1H-indol-5-yl)piperidin-1-yl)-3-hydroxybutan-1-one], for which the IC50 at human TLR7 was more than 3130 nM; against human TLR9, more than 50000 nM; against human TLR8, 1000 to 50000 nM.
On the same counts, the results for `COc1nc(-c2[nH]c3ccc(C4CCN(CC(=O)N(C)C)CC4)cc3c2C(C)C)cn2ncnc12` [Example 292, 2-(4-(3-isopropyl-2-(8-methoxy-[1,2,4]triazolo[1,5-a]pyrazin-6-yl)-1H-indol-5-yl)piperidin-1-yl)-N,N-dimethylacetamide] are less than 100 nM, 1000 to 50000 nM and less than 100 nM.
On the same counts, the results for `CC(=O)NCCNCC(=O)N1CCC(c2ccc3[nH]c(-c4ccnc5[nH]ncc45)c(C(C)C)c3c2)CC1` [Example 573, N-(2-((2-(4-(3-isopropyl-2-(1H-pyrazolo[3,4-b]pyridin-4-yl)-1H-indol-5-yl)piperidin-1-yl)-2-oxoethyl)amino)ethyl)acetamide] are less than 100 nM, 1000 to 50000 nM and less than 100 nM.
On the same counts, the results for `CC(C)c1c(-c2ccnc3[nH]ncc23)[nH]c2cc(F)c(C3CCNCC3)cc12` [Example 253, 4-(6-fluoro-3-isopropyl-5-(piperidin-4-yl)-1H-indol-2-yl)-1H-pyrazolo[3,4-b]pyridine] are less than 100 nM, 100 to 1000 nM and less than 100 nM.
Consider `CC(C)c1c(-c2ccc3cnnn3c2)[nH]c2ccc(C3CCN(Cc4ncn(C)n4)CC3)cc12` [Example 879, 6-(3-isopropyl-5-(1-((1-methyl-1H-1,2,4-triazol-3-yl)methyl)piperidin-4-yl)-1H-indol-2-yl)-[1,2,3]triazolo[1,5-a]pyridine], for which the concentration for half-maximal inhibition (IC50) lay in the range of 100 to 1000 nM against human TLR7, 1000 to 50000 nM against human TLR9 and 100 to 1000 nM against human TLR8.
Take `Cc1cc(-c2[nH]c3ccc(C4CCN(C5COC5)CC4)cc3c2C(C)C)nc2scnc12` [Example 718, 5-(3-isopropyl-5-(1-(oxetan-3-yl)piperidin-4-yl)-1H-indol-2-yl)-7-methylthiazolo[5,4-b]pyridine]: the IC50 was less than 100 nM against human TLR7, 1000 to 50000 nM at human TLR9 and less than 100 nM on human TLR8.
With `Cc1cc2ncnn2nc1-c1[nH]c2ccc(C3CCN(C(=O)CN(C)C)CC3)cc2c1C(C)C` [Example 455, 2-(dimethylamino)-1-(4-(3-isopropyl-2-(7-methyl-[1,2,4]triazolo[1,5-b]pyridazin-6-yl)-1H-indol-5-yl)piperidin-1-yl)ethan-1-one], the figures for the IC50 at human TLR7, on human TLR9 and at human TLR8 were less than 100 nM, 1000 to 50000 nM and less than 100 nM, respectively.
On to `CC(C)c1c(-c2ccc3nccn3c2)[nH]c2ccc(C3CCN(Cc4c[nH]cn4)CC3)cc12` [Example 940, 6-(5-(1-((1H-imidazol-4-yl)methyl)piperidin-4-yl)-3-isopropyl-1H-indol-2-yl)imidazo[1,2-a]pyridine], for which the IC50 at human TLR7, on human TLR9 and against human TLR8 was less than 100 nM each time.
For the compound `CC(C)c1c(-c2cc(F)c3nccn3c2)[nH]c2ccc(C3CCN(CC(=O)N(C)C)CC3)cc12` [Example 408, 2-(4-(2-(8-fluoroimidazo[1,2-5a]pyridin-6-yl)-3-isopropyl-1H-indol-5-yl)piperidin-1-yl)-N,N-dimethylacetamide], the IC50 was less than 100 nM against human TLR7, 1000 to 50000 nM against human TLR9 and 100 to 1000 nM against human TLR8.
On the same counts, the results for `CNCCN1CCC(c2ccc3[nH]c(-c4cncc5ccccc45)c(C)c3c2)CC1` [Example 663, 2-(4-(2-(isoquinolin-4-yl)-3-methyl-1H-indol-5-yl)piperidin-1-yl)-N-methylethan-1-amine] are 1000 to 50000 nM, 100 to 1000 nM and more than 3130 nM.
On the same counts, the results for `CNC(=O)CN1CCC(c2ccc3[nH]c(-c4cn5ccnc5c(C)c4C)c(C(C)C)c3c2)CC1` [Example 413, 2-(4-(2-(7,8-dimethylimidazo[1,2-a]pyridin-6-yl)-3-isopropyl-1H-indol-5-yl)piperidin-1-yl)-N-methylacetamide] are less than 100 nM, 100 to 1000 nM and less than 100 nM.

Source of the values: patent US11739098B2 (BRISTOL-MYERS SQUIBB COMPANY, priority 2017, dated 2023).
